Test results as given in ChEMBL document CHEMBL1201862, “PubChem BioAssay data set” (2004).
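In this assay, cells in 96-well plates receive the compound at five concentrations for 48 hours. Endpoints are linearly interpolated between the surrounding concentrations. GI50 marks 50% less growth.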 Calls of active or inactive are those of the source. Rule as the data show it: active = GI50 up to about 1.1 µM and inactive = higher.

Legend:
Assay in all cases: growth of human tumour cells (NCI), 48 h
KM12 = system: KM12
SNB-19 = system: SNB-19
MOLT-4 = system: MOLT-4
HCT-116 = system: HCT-116
UO-31 = system: UO-31
RPMI-8226 = system: RPMI-8226
SN12C = system: SN12C
SK-OV-3 = system: SK-OV-3
K562 = system: K562
NCI-H460 = system: NCI-H460
HCC 2998 = system: HCC 2998
MCF7 = system: MCF7
SNB-75 = system: SNB-75
DU-145 = system: DU-145
786-0 = system: 786-0
TK-10 = system: TK-10
LOX IMVI = system: LOX IMVI
IGROV-1 = system: IGROV-1
HL-60 = system: HL-60

CCOc1ccc2c(c1)/C(=C(\C(Cl)=C(Cl)Cl)[N+](=O)[O-])N2
GI50 (KM12): > 100 µM (inactive)
GI50 (SNB-19): > 100 µM (inactive)
GI50 (MOLT-4): > 100 µM (inactive)
GI50 (HCT-116): > 100 µM (inactive)
GI50 (UO-31): > 100 µM (inactive)
GI50 (RPMI-8226): 69.3 µM (inactive)
GI50 (SN12C): > 100 µM (inactive)
GI50 (SK-OV-3): > 100 µM (inactive)
GI50 (K562): 51.6 µM (inactive)
GI50 (NCI-H460): > 100 µM (inactive)
GI50 (HCC 2998): > 100 µM (inactive)
GI50 (MCF7): > 100 µM (inactive)
GI50 (SNB-75): > 100 µM (inactive)
GI50 (DU-145): > 100 µM (inactive)
GI50 (786-0): > 100 µM (inactive)

O=c1oc2ccc3ccccc3c2cc1-c1nnc(Nc2ccccc2)s1
GI50 (KM12): 50.7 µM (inactive)
GI50 (SNB-19): 38.4 µM (inactive)
GI50 (MOLT-4): 0.757 µM (active)
GI50 (HCT-116): 22.5 µM (inactive)
GI50 (UO-31): 21.4 µM (inactive)
GI50 (RPMI-8226): 20.1 µM (inactive)
GI50 (SN12C): 50.8 µM (inactive)
GI50 (K562): 51.5 µM (inactive)
GI50 (NCI-H460): 18.7 µM (inactive)
GI50 (HCC 2998): 44.8 µM (inactive)
GI50 (MCF7): 34.8 µM (inactive)
GI50 (TK-10): 16.9 µM (inactive)
GI50 (DU-145): 24.5 µM (inactive)
GI50 (786-0): 16 µM (inactive)

CSc1nc(NC(C)C)c2c(n1)Sc1nc3ccccc3n1C2O (centres undefined)
GI50 (KM12): 3.01 µM (inactive)
GI50 (MOLT-4): 2.84 µM (inactive)
GI50 (LOX IMVI): 7 µM (inactive)
GI50 (HCT-116): 4.13 µM (inactive)
GI50 (UO-31): 5.71 µM (inactive)
GI50 (RPMI-8226): 0.0432 µM (active)
GI50 (SN12C): 9.57 µM (inactive)
GI50 (SK-OV-3): 5.28 µM (inactive)
GI50 (K562): 3.15 µM (inactive)
GI50 (HCC 2998): 5.55 µM (inactive)
GI50 (IGROV-1): 8.04 µM (inactive)
GI50 (MCF7): 0.0465 µM (active)
GI50 (TK-10): 14.3 µM (inactive)
GI50 (SNB-75): 4.61 µM (inactive)
GI50 (DU-145): 3.18 µM (inactive)
GI50 (786-0): 4.11 µM (inactive)

Cc1cc(-c2no[n+]([O-])c2-c2cc(C)sc2S(C)(=O)=O)c(S(C)(=O)=O)s1
GI50 (KM12): > 100 µM (inactive)
GI50 (SNB-19): 20.2 µM (inactive)
GI50 (MOLT-4): > 100 µM (inactive)
GI50 (LOX IMVI): > 100 µM (inactive)
GI50 (HCT-116): > 100 µM (inactive)
GI50 (UO-31): > 100 µM (inactive)
GI50 (RPMI-8226): > 100 µM (inactive)
GI50 (SN12C): > 100 µM (inactive)
GI50 (SK-OV-3): > 100 µM (inactive)
GI50 (K562): 83.4 µM (inactive)
GI50 (NCI-H460): > 100 µM (inactive)
GI50 (HCC 2998): > 100 µM (inactive)
GI50 (IGROV-1): > 100 µM (inactive)
GI50 (TK-10): > 100 µM (inactive)
GI50 (SNB-75): > 100 µM (inactive)
GI50 (786-0): > 100 µM (inactive)

O=S(=O)(/N=C1/S/C(=N\c2ccccc2)N(c2ccccc2)/C1=N/S(=O)(=O)c1ccccc1)c1ccccc1
GI50 (KM12): 19.4 µM (inactive)
GI50 (SNB-19): 24 µM (inactive)
GI50 (MOLT-4): 21.4 µM (inactive)
GI50 (HL-60): 22.6 µM (inactive)
GI50 (HCT-116): 17.6 µM (inactive)
GI50 (UO-31): 15.8 µM (inactive)
GI50 (RPMI-8226): 17.7 µM (inactive)
GI50 (SN12C): 12.4 µM (inactive)
GI50 (K562): 23.9 µM (inactive)
GI50 (NCI-H460): 21.3 µM (inactive)
GI50 (HCC 2998): 20.9 µM (inactive)
GI50 (IGROV-1): 20.5 µM (inactive)
GI50 (MCF7): 20.5 µM (inactive)
GI50 (TK-10): 30.4 µM (inactive)
GI50 (SNB-75): 20.7 µM (inactive)
GI50 (786-0): 19 µM (inactive)

O=C1C2Nc3ccccc3SC2C(=O)N1c1ccccc1C(F)(F)F (centres undefined)
GI50 (KM12): 10.1 µM (inactive)
GI50 (SNB-19): 18.1 µM (inactive)
GI50 (MOLT-4): 23.2 µM (inactive)
GI50 (LOX IMVI): 40.2 µM (inactive)
GI50 (HL-60): 5.19 µM (inactive)
GI50 (HCT-116): 24.5 µM (inactive)
GI50 (UO-31): 38.2 µM (inactive)
GI50 (RPMI-8226): 29 µM (inactive)
GI50 (SN12C): 27.2 µM (inactive)
GI50 (SK-OV-3): 23.7 µM (inactive)
GI50 (K562): 3.99 µM (inactive)
GI50 (NCI-H460): 32.7 µM (inactive)
GI50 (HCC 2998): 16.7 µM (inactive)
GI50 (IGROV-1): 54.1 µM (inactive)
GI50 (TK-10): 42.1 µM (inactive)
GI50 (786-0): 25.2 µM (inactive)

CC1(C)OC(=O)C2(O1)C(=O)C1CCCCC12 (centres undefined)
GI50 (KM12): > 100 µM (inactive)
GI50 (SNB-19): 8.39 µM (inactive)
GI50 (MOLT-4): > 100 µM (inactive)
GI50 (HCT-116): > 100 µM (inactive)
GI50 (UO-31): 82.2 µM (inactive)
GI50 (RPMI-8226): > 100 µM (inactive)
GI50 (SN12C): 3.63 µM (inactive)
GI50 (SK-OV-3): 8.51 µM (inactive)
GI50 (K562): > 100 µM (inactive)
GI50 (HCC 2998): > 100 µM (inactive)
GI50 (IGROV-1): > 100 µM (inactive)
GI50 (MCF7): 5.75 µM (inactive)
GI50 (TK-10): 70.5 µM (inactive)
GI50 (DU-145): > 100 µM (inactive)
GI50 (786-0): 35.6 µM (inactive)

COc1ccc(CN2C[C@H]3[C@@H](CC(=O)O[C@H]3C)CC2=O)cc1
GI50 (KM12): > 100 µM (inactive)
GI50 (SNB-19): > 100 µM (inactive)
GI50 (MOLT-4): > 100 µM (inactive)
GI50 (HCT-116): > 100 µM (inactive)
GI50 (UO-31): > 100 µM (inactive)
GI50 (RPMI-8226): > 100 µM (inactive)
GI50 (SK-OV-3): > 100 µM (inactive)
GI50 (K562): > 100 µM (inactive)
GI50 (NCI-H460): > 100 µM (inactive)
GI50 (HCC 2998): > 100 µM (inactive)
GI50 (IGROV-1): > 100 µM (inactive)
GI50 (MCF7): > 100 µM (inactive)
GI50 (SNB-75): > 100 µM (inactive)
GI50 (DU-145): > 100 µM (inactive)
GI50 (786-0): > 100 µM (inactive)

CC(N)(/C=C/c1ccccc1)C(=O)O (centres undefined)
GI50 (KM12): > 100 µM (inactive)
GI50 (SNB-19): > 100 µM (inactive)
GI50 (MOLT-4): > 100 µM (inactive)
GI50 (LOX IMVI): > 100 µM (inactive)
GI50 (HL-60): > 100 µM (inactive)
GI50 (HCT-116): > 100 µM (inactive)
GI50 (UO-31): > 100 µM (inactive)
GI50 (RPMI-8226): > 100 µM (inactive)
GI50 (SN12C): > 100 µM (inactive)
GI50 (SK-OV-3): > 100 µM (inactive)
GI50 (K562): > 100 µM (inactive)
GI50 (NCI-H460): > 100 µM (inactive)
GI50 (IGROV-1): > 100 µM (inactive)
GI50 (MCF7): > 100 µM (inactive)
GI50 (TK-10): > 100 µM (inactive)
GI50 (786-0): > 100 µM (inactive)

COc1cc2c(cc1O)-c1c(cnn1-c1ccc([N+](=O)[O-])cc1)CCC2
GI50 (KM12): 12.6 µM (inactive)
GI50 (SNB-19): 27.7 µM (inactive)
GI50 (MOLT-4): 1.02 µM (active)
GI50 (LOX IMVI): 12.6 µM (inactive)
GI50 (HCT-116): 18.3 µM (inactive)
GI50 (RPMI-8226): 4.76 µM (inactive)
GI50 (SN12C): 2.86 µM (inactive)
GI50 (SK-OV-3): 44.3 µM (inactive)
GI50 (K562): 32.9 µM (inactive)
GI50 (NCI-H460): 10.3 µM (inactive)
GI50 (IGROV-1): 4.78 µM (inactive)
GI50 (MCF7): 26.8 µM (inactive)
GI50 (TK-10): 8.83 µM (inactive)
GI50 (SNB-75): 22.9 µM (inactive)
GI50 (DU-145): 14.8 µM (inactive)
GI50 (786-0): 12.9 µM (inactive)

COc1cccc(NC(=O)CC(=O)N2NC(c3ccccc3)C(/N=N/c3cccc(C(=O)O)c3)C2=O)c1 (centres undefined)
GI50 (KM12): 39.4 µM (inactive)
GI50 (SNB-19): 28.1 µM (inactive)
GI50 (MOLT-4): 86.3 µM (inactive)
GI50 (LOX IMVI): > 100 µM (inactive)
GI50 (HCT-116): > 100 µM (inactive)
GI50 (UO-31): 27.5 µM (inactive)
GI50 (RPMI-8226): 70 µM (inactive)
GI50 (SN12C): > 100 µM (inactive)
GI50 (SK-OV-3): > 100 µM (inactive)
GI50 (NCI-H460): > 100 µM (inactive)
GI50 (HCC 2998): > 100 µM (inactive)
GI50 (IGROV-1): > 100 µM (inactive)
GI50 (TK-10): > 100 µM (inactive)
GI50 (SNB-75): > 100 µM (inactive)
GI50 (786-0): > 100 µM (inactive)

NNC(=O)CC(=O)Nc1ccc(S(=O)(=O)c2ccc(NC(=O)CC(=O)NN)cc2)cc1
GI50 (KM12): > 100 µM (inactive)
GI50 (SNB-19): > 100 µM (inactive)
GI50 (MOLT-4): > 100 µM (inactive)
GI50 (HL-60): > 100 µM (inactive)
GI50 (HCT-116): > 100 µM (inactive)
GI50 (UO-31): > 100 µM (inactive)
GI50 (RPMI-8226): > 100 µM (inactive)
GI50 (SN12C): > 100 µM (inactive)
GI50 (SK-OV-3): > 100 µM (inactive)
GI50 (K562): > 100 µM (inactive)
GI50 (NCI-H460): > 100 µM (inactive)
GI50 (HCC 2998): > 100 µM (inactive)
GI50 (IGROV-1): > 100 µM (inactive)
GI50 (TK-10): > 100 µM (inactive)
GI50 (SNB-75): > 100 µM (inactive)
GI50 (DU-145): > 100 µM (inactive)
GI50 (786-0): > 100 µM (inactive)

Nc1n[n+](CC(=O)c2ccccc2)c2sc(-c3ccccc3)nn12
GI50 (KM12): 46.1 µM (inactive)
GI50 (SNB-19): > 100 µM (inactive)
GI50 (MOLT-4): 90.6 µM (inactive)
GI50 (LOX IMVI): 54 µM (inactive)
GI50 (HCT-116): 44.2 µM (inactive)
GI50 (UO-31): 79.3 µM (inactive)
GI50 (RPMI-8226): 60 µM (inactive)
GI50 (SN12C): > 100 µM (inactive)
GI50 (SK-OV-3): > 100 µM (inactive)
GI50 (K562): 82.4 µM (inactive)
GI50 (NCI-H460): > 100 µM (inactive)
GI50 (IGROV-1): > 100 µM (inactive)
GI50 (MCF7): 51.4 µM (inactive)
GI50 (TK-10): > 100 µM (inactive)
GI50 (SNB-75): > 100 µM (inactive)
GI50 (DU-145): > 100 µM (inactive)
GI50 (786-0): > 100 µM (inactive)
